Test results from the NIST ThermoML archive (doi:10.1016/j.jct.2010.08.010).

Settings: Liquid, Buoyancy - hydrostatic balance with magnetic suspension - one sinker

CCO [ethanol]
Settings | mass density [kg/m3]
233.15 K, 103.29 kPa | 840.318
233.15 K, 1104.7 kPa | 840.959
233.15 K, 2004.6 kPa | 841.531
233.15 K, 4076.8 kPa | 842.835
233.15 K, 6134.1 kPa | 844.107
233.15 K, 8092.6 kPa | 845.306
233.15 K, 10007 kPa | 846.455
233.15 K, 12137 kPa | 847.721
233.15 K, 14139 kPa | 848.897
233.15 K, 16099 kPa | 850.035
233.15 K, 18082 kPa | 851.168
233.15 K, 20011 kPa | 852.258
233.15 K, 22096 kPa | 853.419
233.15 K, 24040 kPa | 854.493
233.15 K, 25991 kPa | 855.559
233.15 K, 27978 kPa | 856.635
233.15 K, 29956 kPa | 857.691
253.15 K, 102.67 kPa | 823.303
253.15 K, 1104.1 kPa | 824.013
253.15 K, 2003.9 kPa | 824.651
253.15 K, 4116.4 kPa | 826.119
253.15 K, 6065.7 kPa | 827.455
253.15 K, 8137.6 kPa | 828.849
253.15 K, 10136 kPa | 830.174
253.15 K, 12072 kPa | 831.443
253.15 K, 14126 kPa | 832.763
253.15 K, 16133 kPa | 834.037
253.15 K, 17950 kPa | 835.17
253.15 K, 19863 kPa | 836.357
253.15 K, 22055 kPa | 837.687
253.15 K, 23993 kPa | 838.859
253.15 K, 25929 kPa | 840.004
253.15 K, 27985 kPa | 841.212
253.15 K, 30009 kPa | 842.379
273.15 K, 102.91 kPa | 806.406
273.15 K, 1099 kPa | 807.191
273.15 K, 2003.9 kPa | 807.905
273.15 K, 4161.8 kPa | 809.57
273.15 K, 6026.6 kPa | 810.981
273.15 K, 8023.2 kPa | 812.466
273.15 K, 10006 kPa | 813.916
273.15 K, 12107 kPa | 815.421
273.15 K, 13929 kPa | 816.718
273.15 K, 15980 kPa | 818.142
273.15 K, 17875 kPa | 819.435
273.15 K, 20011 kPa | 820.885
273.15 K, 21848 kPa | 822.104
273.15 K, 24050 kPa | 823.548
273.15 K, 25880 kPa | 824.728
273.15 K, 27865 kPa | 826.002
273.15 K, 29956 kPa | 827.312
293.15 K, 103.01 kPa | 789.433
293.15 K, 1103.9 kPa | 790.313
293.15 K, 2004 kPa | 791.096
293.15 K, 4147.8 kPa | 792.937
293.15 K, 6147.5 kPa | 794.616
293.15 K, 8110.8 kPa | 796.232
293.15 K, 10008 kPa | 797.758
293.15 K, 11860 kPa | 799.229
293.15 K, 13880 kPa | 800.802
293.15 K, 15954 kPa | 802.391
293.15 K, 17852 kPa | 803.817
293.15 K, 19967 kPa | 805.383
293.15 K, 21842 kPa | 806.743
293.15 K, 23888 kPa | 808.2
293.15 K, 25963 kPa | 809.658
293.15 K, 27862 kPa | 810.975
293.15 K, 30031 kPa | 812.452
313.15 K, 102.5 kPa | 772.101
313.15 K, 1103.5 kPa | 773.094
313.15 K, 2103.5 kPa | 774.069
313.15 K, 4116 kPa | 775.994
313.15 K, 6079.7 kPa | 777.835
313.15 K, 8130.4 kPa | 779.714
313.15 K, 10007 kPa | 781.394
313.15 K, 12116 kPa | 783.241
313.15 K, 14081 kPa | 784.928
313.15 K, 16092 kPa | 786.617
313.15 K, 18056 kPa | 788.235
313.15 K, 19919 kPa | 789.747
313.15 K, 22046 kPa | 791.432
313.15 K, 24130 kPa | 793.056
313.15 K, 26107 kPa | 794.571
313.15 K, 27987 kPa | 795.987
313.15 K, 29995 kPa | 797.476
333.15 K, 1102.5 kPa | 755.18
333.15 K, 2002.7 kPa | 756.173
333.15 K, 4085.9 kPa | 758.43
333.15 K, 6133 kPa | 760.589
333.15 K, 8031.9 kPa | 762.538
333.15 K, 9967.1 kPa | 764.48
333.15 K, 12099 kPa | 766.557
333.15 K, 13992 kPa | 768.358
333.15 K, 16124 kPa | 770.342
333.15 K, 18019 kPa | 772.071
333.15 K, 20012 kPa | 773.85
333.15 K, 22050 kPa | 775.625
333.15 K, 24136 kPa | 777.409
333.15 K, 26130 kPa | 779.08
333.15 K, 28069 kPa | 780.679
333.15 K, 30018 kPa | 782.258
353.15 K, 1101.8 kPa | 736.102
353.15 K, 2002.9 kPa | 737.255
353.15 K, 4009.6 kPa | 739.749
